Tests used:
TNF-α = assay: LPS-induced serum TNF-α in mice (sandwich ELISA); assay type: in vivo, C57/BL6 mice
Procedure: To examine the effect of gaseous CO on the immune system, C57/BL6 mice (B6, Jackson Laboratory, Bar Harbor, Me.) were first exposed to 500 ppm CO in air (Praxair, Danbury, Conn.) for one hour in a sealed chamber before injection of lipopolysaccharide (LPS) (0.3 mg/kg, i.v., Sigma, St Louis, Mo.). After injection, they were exposed to another hour in the CO chamber. Blood samples were collected one hour after LPS injection (through the aortic artery) and the COHb level in whole blood was measured by a whole blood AVOXimeter 4000 (A-VOX Systems, San Antonio, Tex.). Serum samples were separated and were kept at −80° C. until analysis. Serum TNF-α was measured by sandwich ELISA (Biosource, Camarillo, Calif.).
To reveal the therapeutic potential of CO generators, methylene chloride (MC, Sigma, St. Louis, Mo.) was selected as a lead compound. Different concentrations of MC were prepared by using olive oil as a solvent. Mice were treated with MC at 5 mg/kg., 50 mg/kg, and 500 mg/kg, p.o., one hour before LPS administration.

HO-1 = assay: ELISA for HO-1 protein expression in liver; set-up: species or system rat; details: ZnPP = pretreatment then CO perfusion; CO = CO only
Procedure: ELISA for HO-1 protein expression. Livers were homogenized on ice in a Tris-HCl lysis buffer (pH 7.4) containing 0.5% Triton X-100 and protease inhibitors. Flat-bottom microtiter 96-well plates (Nunc) were coated with 7 μg/ml anti-HO-1 mAb (OSA-111, Stressgen, Canada) in PBS for 18 h at room temperature. Unbound Ab was removed by washing (wash buffer: 0.05% Tween 20 in 50 mM phosphate buffer, pH 7.5) and remaining binding sites were blocked by incubation with a 5% BSA/PBS solution (1 h). Recombinant HO-1 (SPP-730) and tissue homogenate were diluted in assay diluent (0.5% BSA/0.05% Tween 20/PBS) and incubated in anti-HO-1 mAb coated wells for 1 h at room temperature. Subsequently, plates were washed three times with wash buffer and incubated with rabbit anti-HO-1 polyclonal antibody (SPA-895, Stressgen; diluted 1:1000 in assay diluent) for 30 min at room temperature. Bound rabbit IgG was detected with a donkey anti-rabbit (gG-HRP conjugate (711-035-152, Jackson Research Laboratories; diluted 1:8000 in assay diluent). Unbound secondary Ab was removed by washing and bound HRP was detected using 1 mg/ml OPD in substrate buffer (0.1% H2O2, 0.1 M citric acid, 0.2 M Na2HPO4, pH 5.0). The color reaction was stopped with 1 M HCl and the optical density at 490 nm was measured.

[1] = tested on: anti-MHC class I alloantibodies; assay: Detection of alloantibodies (cytofluorimetry); assay type: in vivo, rat; details: vs recipients of control adenovirus-treated aortas
Procedure: Detection of alloantibodies. Donor LEW.1W splenocyts were incubated with heat-inactivated serum from ELW.1A recipients, serially diluted in PBS. Cells were then washed and simultaneously incubated with FITC-coupled donkey anti-rat IgG (Jackson Laboratories) and with a biotin-labeled anti-B cell Mab (clone OX33, ECACC). After washing, cells were incubated with phycoerythrin-coupled streptavidin. Serum levels of alloantibodies were determined by cytofluorimetry (FACScalibur, Becton Dickinson, San Jose, Calif.) and reported as the mean channel fluorescence (MCF) at each dilution of serum. A predominance of anti-donor MHC class II alloantibodies, as previously described in certain tolerance models (Cuturi et al., Eur. J. Immunol. 24:1627-31 (1994)), is detected by the binding of alloantibodies only to OX33 positive cells (B cells). The presence of anti-MHC class I alloantibodies results in labeling of OX33 negative (T cells) and positive cells. MCF of alloantibody binding to OX33 negative cells indicated the level of anti-MHC I alloantibodies.

allogeneic OLTs = assay: In vivo detection of apoptosis in OLTs; set-up: species or system rat; details: day 10 post-transplant
Procedure: In vivo detection of apoptosis. A commercial in situ histochemical assay (Klenow-FragEL, Oncogene Research Products, Cambridge, Mass.) was performed to detect the DNA fragmentation characteristic of apoptosis in formalin-fixed paraffin-embedded tissue sections. In this assay, Kienow binds to exposed ends of DNA fragments generated in response to apoptotic signals and catalyzes the template-dependent addition of biotin-labeled and unlabeled deoxynucleotides. Biotinylated nucleotides are detected using a streptavidin-horse radish peroxidase (HRP) conjugate. Diaminobenzidine reacts with the labeled sample to generate an insoluble colored substrate at the site of DNA fragmentation. Counterstaining with methyl green aids in the morphological evaluation and characterization of normal and apoptotic cells. The results were scored semi-quantitatively by averaging the number of apoptotic cells per microscopic field at 200× magnification. Six fields were evaluated per tissue sample. All data are expressed as mean±SD.

Lewis rats = assay: Experimental autoimmune encephalomyelitis (EAE) model of multiple sclerosis; assay type: in vivo, rat; details: daily oral administration from day 8 post-inoculation; scale 0 to 3
Procedure: Multiple sclerosis is characterized by an autoimmune and inflammatory response directed against myelin sheath and oligodendrocytes, resulting in demyelination in the central nervous system. A well-established animal model of multiple sclerosis, experimental autoimmune encephalomyelitis (EAE), was used to examine the effect of the subject alkyl halides on this autoimmune and inflammatory condition of the central nervous system. Lewis rats were given intradermal footpad injections of 50 μg guinea pig myelin basic protein (MBP) and complete Freund's adjuvant (CFA) to induce experimental allergic encephalomyelitis (EAE). Daily oral administration of vehicle, methylene chloride or iodoform was started on day 8 post-inoculation and continued to the end of the study. Animals were monitored and scored on a 0 (normal) to 3 (complete hindlimb paralysis) scale. Daily mean±SD clinical scores are shown.

Row | Structure (SMILES) | serum TNF-α levels (TNF-α; LPS 0.3 mg/kg i.v., 500 ppm CO in air 1 h before and 1 h after LPS, blood 1 h after LPS) | HO-1 protein expression in liver samples (ELISA) (HO-1) | levels of anti-MHC class I alloantibodies [1] | level of TNF-α (TNF-α; MC 5 mg/kg p.o. one hour before LPS) | level of TNF-α (TNF-α; MC 50 mg/kg p.o. one hour before LPS) | level of TNF-α (TNF-α; MC 500 mg/kg p.o. one hour before LPS) | TUNEL+ cells/field in allogeneic OLTs (allogeneic OLTs) | clinical score / clinical signs (Lewis rats)
1 | [C-]#[O+] [CO, carbon monoxide] | 3,347+1393 pg/ml | 7.51±2.13 ng of HO-1/mg lysate |  |  |  |  |  | 
2 | ClCCl [methylene chloride] |  |  | no statistical differences | 3720 ± 1666 pg/mL | 3124.2 ± 1147 pg/mL | 2339 ± 770 pg/mL | 4.5±2.3 | show improvement over the controls

From patent US20040143025A1, “Carbon monoxide generating compunds for treatment of vascular, inflammatory and immune disorders” (priority 2002, published 2004)
